Assay results published in patent publication US4946835A (priority 1988, dated 1990).
Converted amounts (≈) assume the structure as drawn. Like-named read-outs stand apart in the source and are kept apart here.

How the values were obtained:
Cryptococcus neoformans [1] = test: agar dilution assay (MIC) against expanded panel of 84 Cryptococcus neoformans isolates; assay type: cell-based; conditions: for MIC50: read-out: MIC50 (concentration at which 50% of the strains were inhibited); for MIC90: read-out: MIC90 (concentration at which 90% of the strains were inhibited)
Method: (§1) Such activity may be illustrated with test results against Cryptococcus neoformans employing yeast nitrogen base dextrose agar medium. In carrying out the assay, Compound I was solubilized in 10 percent dimethyl sulfoxide (DMSO) supplemented with one drop of Tween 20. Twofold dilutions were made with sterile distilled water/10 percent DMSO to obtain final drug concentrations in the agar dilution assay plates ranging from 128 to 0.06 μg/ml against two strains of Cryptococcus neoformans and subsequently against an expanded panel of 84 Cryptococcus strains at concentrations ranging from 0.008 to 16.0 μg/ml.
(§2) Nystatin or amphotericin B was used as a positive control. For the assay, nystatin was solubilized in 10 percent dimethylformamide and diluted in sterile distilled water; amphotericin B was solubilized by expressing water directly into a lyophilized cake and shaking until the colloidal solution was clear and then diluted in sterile distilled water. The final drug concentrations ranged from 0.063 to 128 μg/ml.

Alternaria solani = test: disk diffusion assay, Alternaria solani; assay type: cell-based; set-up: key: fuzzy (F)--a zone that had a fuzzy edge and clear center surrounding the disc; hazy (H)--a zone that was hazy throughout; slightly hazy (S)--a zone in which low levels of growth were discernible throughout the inhibition zone; very hazy (V)--a zone in which the differences between the background lawn and inhibition zone were barely discernible; conditions: appearance of inhibition zone
Method: (§3) The broad antifungal activity of Compound I against fungi may be illustrated with representative assay results in a disk diffusion assay. Filamentous fungi used in the assays were prepared from stock cultures which had been maintained on potato dextrose agar (Difco) and transferred serially at two week intervals using standard microbiological techniques. Yeast used were prepared from stock cultures of strains of yeast which had been maintained frozen at -80° C. in 20 percent aqueous glycerol.
(§4) Seeded agar assay plates were prepared according to the type of assay strain. Inoculum for filamentous fungi was prepared by scraping the surface of stock plates with a moistened sterile dacron swab. The spores and mycelia were then suspended in 10 milliliters of sterile potato dextrose broth (PDB) and adjusted to 70% transmittance (T) at 660 nm. Inoculum for Cryptococcus was prepared from overnight broth cultures. Cultures were then diluted into PDB to a final concentration of either 40% or 70% T at 660 nm. Assay plates were prepared by diluting the inoculum into appropriate molten agar medium, and thereafter cooled to 45° C., to yield a final concentration of 4 percent.
(§5) Samples were applied to 6.2 mm filter paper disks (25 μl disk) and air dried at 24° C. […]
(§6) Following incubation, inhibition zones were measured and recorded. […]

Aspergillus flavus = test: disk diffusion assay, Aspergillus flavus; assay type: cell-based; set-up: key: fuzzy (F)--a zone that had a fuzzy edge and clear center surrounding the disc; hazy (H)--a zone that was hazy throughout; slightly hazy (S)--a zone in which low levels of growth were discernible throughout the inhibition zone; very hazy (V)--a zone in which the differences between the background lawn and inhibition zone were barely discernible; conditions: appearance of inhibition zone
Method: as §3, §4, §5, §6

Aspergillus fumigatus = test: disk diffusion assay, Aspergillus fumigatus; assay type: cell-based; set-up: key: fuzzy (F)--a zone that had a fuzzy edge and clear center surrounding the disc; hazy (H)--a zone that was hazy throughout; slightly hazy (S)--a zone in which low levels of growth were discernible throughout the inhibition zone; very hazy (V)--a zone in which the differences between the background lawn and inhibition zone were barely discernible; conditions: appearance of inhibition zone
Method: as §3, §4, §5, §6

Aspergillus niger = test: disk diffusion assay, Aspergillus niger; assay type: cell-based; set-up: key: fuzzy (F)--a zone that had a fuzzy edge and clear center surrounding the disc; hazy (H)--a zone that was hazy throughout; slightly hazy (S)--a zone in which low levels of growth were discernible throughout the inhibition zone; very hazy (V)--a zone in which the differences between the background lawn and inhibition zone were barely discernible; conditions: appearance of inhibition zone
Method: as §3, §4, §5, §6

Botrytis allii = test: disk diffusion assay, Botrytis allii; assay type: cell-based; set-up: key: fuzzy (F)--a zone that had a fuzzy edge and clear center surrounding the disc; hazy (H)--a zone that was hazy throughout; slightly hazy (S)--a zone in which low levels of growth were discernible throughout the inhibition zone; very hazy (V)--a zone in which the differences between the background lawn and inhibition zone were barely discernible; conditions: appearance of inhibition zone
Method: as §3, §4, §5, §6

Cephalosporium sp. = test: disk diffusion assay, Cephalosporium sp.; assay type: cell-based; set-up: key: fuzzy (F)--a zone that had a fuzzy edge and clear center surrounding the disc; hazy (H)--a zone that was hazy throughout; slightly hazy (S)--a zone in which low levels of growth were discernible throughout the inhibition zone; very hazy (V)--a zone in which the differences between the background lawn and inhibition zone were barely discernible; conditions: appearance of inhibition zone
Method: as §3, §4, §5, §6

Ceratocystis ulmi = test: disk diffusion assay, Ceratocystis ulmi; assay type: cell-based; set-up: key: fuzzy (F)--a zone that had a fuzzy edge and clear center surrounding the disc; hazy (H)--a zone that was hazy throughout; slightly hazy (S)--a zone in which low levels of growth were discernible throughout the inhibition zone; very hazy (V)--a zone in which the differences between the background lawn and inhibition zone were barely discernible; conditions: appearance of inhibition zone
Method: as §3, §4, §5, §6

Cercospora beticola = test: disk diffusion assay, Cercospora beticola; assay type: cell-based; set-up: key: fuzzy (F)--a zone that had a fuzzy edge and clear center surrounding the disc; hazy (H)--a zone that was hazy throughout; slightly hazy (S)--a zone in which low levels of growth were discernible throughout the inhibition zone; very hazy (V)--a zone in which the differences between the background lawn and inhibition zone were barely discernible; conditions: appearance of inhibition zone
Method: as §3, §4, §5, §6

Cochliobolus miyabeanus = test: disk diffusion assay, Cochliobolus miyabeanus; assay type: cell-based; set-up: key: fuzzy (F)--a zone that had a fuzzy edge and clear center surrounding the disc; hazy (H)--a zone that was hazy throughout; slightly hazy (S)--a zone in which low levels of growth were discernible throughout the inhibition zone; very hazy (V)--a zone in which the differences between the background lawn and inhibition zone were barely discernible; conditions: appearance of inhibition zone
Method: as §3, §4, §5, §6

Fusarium oxysporum = test: disk diffusion assay, Fusarium oxysporum; assay type: cell-based; set-up: key: fuzzy (F)--a zone that had a fuzzy edge and clear center surrounding the disc; hazy (H)--a zone that was hazy throughout; slightly hazy (S)--a zone in which low levels of growth were discernible throughout the inhibition zone; very hazy (V)--a zone in which the differences between the background lawn and inhibition zone were barely discernible; conditions: appearance of inhibition zone
Method: as §3, §4, §5, §6

Penicillium sp. = test: disk diffusion assay, Penicillium sp.; assay type: cell-based; set-up: key: fuzzy (F)--a zone that had a fuzzy edge and clear center surrounding the disc; hazy (H)--a zone that was hazy throughout; slightly hazy (S)--a zone in which low levels of growth were discernible throughout the inhibition zone; very hazy (V)--a zone in which the differences between the background lawn and inhibition zone were barely discernible; conditions: appearance of inhibition zone
Method: as §3, §4, §5, §6

Phoma sp. = test: disk diffusion assay, Phoma sp.; assay type: cell-based; set-up: key: fuzzy (F)--a zone that had a fuzzy edge and clear center surrounding the disc; hazy (H)--a zone that was hazy throughout; slightly hazy (S)--a zone in which low levels of growth were discernible throughout the inhibition zone; very hazy (V)--a zone in which the differences between the background lawn and inhibition zone were barely discernible; conditions: appearance of inhibition zone
Method: as §3, §4, §5, §6

Rhizomucor miehei = test: disk diffusion assay, Rhizomucor miehei; assay type: cell-based; set-up: key: fuzzy (F)--a zone that had a fuzzy edge and clear center surrounding the disc; hazy (H)--a zone that was hazy throughout; slightly hazy (S)--a zone in which low levels of growth were discernible throughout the inhibition zone; very hazy (V)--a zone in which the differences between the background lawn and inhibition zone were barely discernible; conditions: appearance of inhibition zone
Method: as §3, §4, §5, §6

Scopulariopsis communes = test: disk diffusion assay, Scopulariopsis communes; assay type: cell-based; set-up: key: fuzzy (F)--a zone that had a fuzzy edge and clear center surrounding the disc; hazy (H)--a zone that was hazy throughout; slightly hazy (S)--a zone in which low levels of growth were discernible throughout the inhibition zone; very hazy (V)--a zone in which the differences between the background lawn and inhibition zone were barely discernible; conditions: appearance of inhibition zone
Method: as §3, §4, §5, §6

Trichoderma lignorum = test: disk diffusion assay, Trichoderma lignorum; assay type: cell-based; set-up: key: fuzzy (F)--a zone that had a fuzzy edge and clear center surrounding the disc; hazy (H)--a zone that was hazy throughout; slightly hazy (S)--a zone in which low levels of growth were discernible throughout the inhibition zone; very hazy (V)--a zone in which the differences between the background lawn and inhibition zone were barely discernible; conditions: appearance of inhibition zone
Method: as §3, §4, §5, §6

Trichoderma sp. = test: disk diffusion assay, Trichoderma sp.; assay type: cell-based; set-up: key: fuzzy (F)--a zone that had a fuzzy edge and clear center surrounding the disc; hazy (H)--a zone that was hazy throughout; slightly hazy (S)--a zone in which low levels of growth were discernible throughout the inhibition zone; very hazy (V)--a zone in which the differences between the background lawn and inhibition zone were barely discernible; conditions: appearance of inhibition zone
Method: as §3, §4, §5, §6

Ustilago zea = test: disk diffusion assay, Ustilago zea; assay type: cell-based; set-up: key: fuzzy (F)--a zone that had a fuzzy edge and clear center surrounding the disc; hazy (H)--a zone that was hazy throughout; slightly hazy (S)--a zone in which low levels of growth were discernible throughout the inhibition zone; very hazy (V)--a zone in which the differences between the background lawn and inhibition zone were barely discernible; conditions: appearance of inhibition zone
Method: as §3, §4, §5, §6

Verticillium serrae = test: disk diffusion assay, Verticillium serrae; assay type: cell-based; set-up: key: fuzzy (F)--a zone that had a fuzzy edge and clear center surrounding the disc; hazy (H)--a zone that was hazy throughout; slightly hazy (S)--a zone in which low levels of growth were discernible throughout the inhibition zone; very hazy (V)--a zone in which the differences between the background lawn and inhibition zone were barely discernible; conditions: appearance of inhibition zone
Method: as §3, §4, §5, §6

Cryptococcus albidus = test: disk diffusion assay, Cryptococcus albidus; assay type: cell-based; set-up: key: fuzzy (F)--a zone that had a fuzzy edge and clear center surrounding the disc; hazy (H)--a zone that was hazy throughout; slightly hazy (S)--a zone in which low levels of growth were discernible throughout the inhibition zone; very hazy (V)--a zone in which the differences between the background lawn and inhibition zone were barely discernible; conditions: appearance of inhibition zone
Method: as §3, §4, §5, §6

Cryptococcus laurentii = test: disk diffusion assay, Cryptococcus laurentii; assay type: cell-based; set-up: key: fuzzy (F)--a zone that had a fuzzy edge and clear center surrounding the disc; hazy (H)--a zone that was hazy throughout; slightly hazy (S)--a zone in which low levels of growth were discernible throughout the inhibition zone; very hazy (V)--a zone in which the differences between the background lawn and inhibition zone were barely discernible; conditions: appearance of inhibition zone
Method: as §3, §4, §5, §6

Cryptococcus neoformans [2] = test: agar dilution assay (MIC) against two strains of Cryptococcus neoformans; assay type: cell-based; conditions: yeast nitrogen base dextrose agar
Method: as §1, §2
The minimum inhibitory concentration (MIC) against the organisms employed on the standard assay were as follows: […]

[3] = test system: certain yeasts, particularly the Cryptococcus species; test: activity against certain yeasts (statement); assay type: cell-based
Erwinia species = test: activity against bacteria (statement), Erwinia; assay type: cell-based
Staphylococcus species = test: activity against bacteria (statement), Staphylococcus; assay type: cell-based
Serratia species = test: activity against bacteria (statement), Serratia; assay type: cell-based
solubility = conditions: organic solvents

C[C@@H]1[C@H](O)[C@@H](C)/C=C/C=C/C=C/C=C/C=C/C=C/C=C/[C@H](O[C@@H]2O[C@H](C)[C@@H](O)[C@H](N)[C@@H]2O)C[C@@H]2O[C@](O)(C[C@@H](O)C[C@@H](O)[C@H](O)CC[C@@H](O)C[C@@H](O)CC(=O)O[C@H]1C)C[C@H](O)[C@H]2C(=O)O [Amphotericin B, amphotericin B, reference compound]
MIC50 (Cryptococcus neoformans [1]; 84 isolates): 0.125 µg/mL (≈ 0.135 µM)
MIC90 (Cryptococcus neoformans [1]; 84 isolates): 0.25 µg/mL (≈ 0.271 µM)

COc1ccc(CC2NC(=O)C=CCC(C(C)C3OC3c3ccccc3)OC(=O)C(CC(C)C)OC(=O)C(C)CNC2=O)cc1Cl (stereo not shown) [Compound I, 10-[(3-chloro 4methoxyphenyl)methyl]-6-methyl-3-(2-methylpropyl)-16-[1-(3-phenyloxiranyl)ethyl]-1,4-dioxa-8,11-diazacyclohexadec-13-ene-2,5,9,12-tetrone]
Zone qualifier (Alternaria solani): S
Zone qualifier (Aspergillus flavus): S
Zone qualifier (Aspergillus fumigatus): S
Zone qualifier (Aspergillus niger): S
Zone qualifier (Botrytis allii): S
Zone qualifier (Cephalosporium sp.): V
Zone qualifier (Ceratocystis ulmi): S
Zone qualifier (Cercospora beticola): S
Zone qualifier (Cochliobolus miyabeanus): F
Zone qualifier (Fusarium oxysporum): F
Zone qualifier (Penicillium sp.): S and F
Zone qualifier (Phoma sp.): S
Zone qualifier (Rhizomucor miehei): V
Zone qualifier (Scopulariopsis communes): H
Zone qualifier (Trichoderma lignorum): S
Zone qualifier (Trichoderma sp.): S
Zone qualifier (Ustilago zea): S
Zone qualifier (Verticillium serrae): V
Zone qualifier (Cryptococcus albidus): S
Zone qualifier (Cryptococcus laurentii): H and S
MIC (Cryptococcus neoformans [2]; strain MY1051, read-out: Minimum Inhibitory Concentration): ≤ 0.063 µg/mL
Minimum Inhibitory Concentration (Cryptococcus neoformans [2]; strain MY1146): ≤ 0.063 µg/mL
MIC (Cryptococcus neoformans [1]; read-out: G-MIC (geometric means of MIC)): 0.03 µg/mL (≈ 0.0458 µM)
MIC50 (Cryptococcus neoformans [1]): 0.031 µg/mL (≈ 0.0473 µM)
MIC90 (Cryptococcus neoformans [1]): 0.031 µg/mL (≈ 0.0473 µM)
activity against certain yeasts [3]: active
activity against bacteria (Erwinia species): active
activity against bacteria (Staphylococcus species): active
activity against bacteria (Serratia species): active
solubility (solubility): soluble in organic solvents

C[C@@H]1[C@H](O)[C@@H](C)/C=C/C=C/CC/C=C/C=C/C=C/C=C/C(O[C@H]2O[C@H](C)[C@@H](O)[C@H](N)[C@@H]2O)CC2O[C@](O)(CC(O)C(O)CCC(O)CC(O)CC(O)CC(=O)O[C@H]1C)CC(O)C2C(=O)O (stereo partly shown) [Nystatin, nystatin, reference compound]
Minimum Inhibitory Concentration (Cryptococcus neoformans [2]; strain MY1051): 1.0 µg/mL
Minimum Inhibitory Concentration (Cryptococcus neoformans [2]; strain MY1146): 1.0 µg/mL
